For the experiment, the system named is 3T3 A31 cells. Description: Biological activity: induction of proliferation of 3T3 A31 cells, crystal violet. Type of experiment: cell-based, mouse. Conditions: before being formulated in form of capsule. The protocol:
The activity of epidermal growth factor in capsules of example 1 packaged in blisters and stored at temperatures of 5±3° C. were tested. This biological test is based on the capacity of the epidermal growth factor human recombinant (EGF Hu-r) to induce the proliferation of cell lines of mouse embryos of 3T3/A3 which are extremely sensitive to contact inhibition cell division.
For determining the capability of induction of cell proliferation of EGF and its duration, the method comprises the quantification of the absorption of colorant crystal violet by the living cells 3T3 A31.
The preparation of samples of EGF comprises the addition of 100 ml of phosphate saline buffer (PBS1×) to the content of 10 capsules of Example 1, maintaining agitation for 15 minutes. The resultant suspension was centrifuged for 5 minutes at 9000 rpm and the aqueous solution was collected.
Cells 3T3 A31 in 96-plates at a concentration of 1.5×10^5 cells/mL were sown. These plates were incubated at 37° C., 5% CO2 and 95% humidity for 24 hours.
After completing the incubation time, cells were washed twice with 100 μl of PBS1× and then 100 μl of DMEM 1× without fetal bovine serum (SFB) was added to the medium and plates were incubated at 37° C., 5% CO2 and 95% humidity for another 24 hours. […]

Regarding “epidermal growth factor [epidermal growth factor human recombinant, before being formulated in form of capsule]”, the “Reference biological activity of EGF” value is 2×10^6 UI/mg.

The record behind these values is US9205130B2, “Orally administrable pharmaceutical pellet of epidermal growth factor” (CENTRO DE INGENIERIA GENETICA Y BIOTECNOLOGIA, priority 2010, dated 2015).
